Values quoted from earlier work in patent US20050222163A1, “Combinations of signal transduction inhibitors” (PFIZER INC, priority 2004, published 2005).

Columns and labels:
[1] = system: phosphorylated ERK1 and ERK2; settings: background statement, result in words
[2] = comparison with predecessor CI-1040, result in words

Compound | levels of phosphorylated ERK1 and ERK2 [1] | metabolic stability relative to CI-1040 [2]
O=C(NOC[C@H](O)CO)c1ccc(F)c(F)c1Nc1ccc(I)cc1F [N-[(R)-2,3-Dihydroxy-propoxy]-3,4-difluoro-2-(2-fluoro-4-iodo-phenylamino)-benzamide] | significantly inhibits the phosphorylation of ERK1 and ERK2 | metabolically more stable
O=C(NOCC1CC1)c1ccc(F)c(F)c1Nc1ccc(I)cc1Cl [CI-1040, 2-(2-Chloro-4-iodo-phenylamino)-N-cyclopropylmethoxy-3,4-difluoro-benzamide, reference compound] | significant decrease | –
